Active and inactive are the calls of the source. No cut-off for these calls is given here.
How the values were obtained:
786-0 [1] = experiment: Inhibition of RSL3-induced ferroptosis in human 786-0 cells assessed as cell viability incubated for 24 hrs by CellTiter-LumiTM assay; type: functional, cell-based; conditions: 786-0, 24 h
786-0 [2] = experiment: Inhibition of RSL3-induced ferroptosis in human 786-0 cells assessed as cell protection by assessing cell morphology at 1 uM incubated for 24 hrs; type: functional, cell-based
[3] = Metabolic stability in human plasma assessed as half life at 1 uM by LC-MS/MS analysis; type: ADME, cell-free
[4] = Inhibition of RSL3 induced ferroptosis in human SK-HEP1 cells assessed as cell viability incubated for 24 hrs by CellTiter-LumiTM assay; type: functional, cell-based; conditions: SK-HEP1, 24 h
786-0 [5] = experiment: Cytotoxicity against human 786-0 cells assessed as cell viability incubated for 24 hrs by CellTiter-LumiTM assay; type: functional
[6] = Suppression of autoxidation of liposomes egg ( unknown origin) phosphatidylcholine lipids as substrate at 0.1 to 2.5 uM incubated for 5 min by C11-BODIPY 581/591 dye based fluorescent assay; type: functional; conditions: dose 0.1-2.5 µM
786-0 [7] = experiment: Inhibition of STS induced apoptosis in human 786-0 cells assessed as cell viability at 1 uM incubated for 24 hrs by CellTiter-LumiTM assay; type: functional, cell-based
HT-1080 = experiment: Anti-ferroptotic activity in human GPX4 knockout HT-1080 cells assessed as cell viability at 1 uM incubated for 24 hrs by CellTiter-LumiTM plus luminescent cell viability assay; type: functional, cell-based
[8] = Inhibition of RSL3 induced ferroptosis in human HT-1080 cells assessed as cell viability incubated for 24 hrs by CellTiter-LumiTM assay; type: functional, cell-based; conditions: HT-1080, 24 h
786-0 [9] = experiment: Inhibition of RSL3 induced ferroptosis in human 786-0 cells assessed as cell viability in presence of iFSP1 at 1 uM measured after 24 hrs by CellTiter-LumiTM assay; type: functional, cell-based
786-0 [10] = experiment: Inhibition of RSL3 induced lipid-ROS accumulation in human 786-0 cells assessed as fast elimination at 1 uM measured after 0.25 to 2.5 hrs by C11-BODIPY 581/591 staining coupled with flow cytometry analysis; type: functional, cell-based; conditions: time 0.25-2.5 hrs
SK-HEP1 [11] = experiment: Inhibition of RSL3 induced lipid-ROS accumulation in human SK-HEP1 cells at 1 uM incubated for 0.5 hrs by C11-BODIPY 581/591 staining coupled with flow cytometry analysis; type: functional, cell-based
[12] = Antioxidant activity assessed as free radical scavenging activity incubated for 30 mins in dark by DPPH assay relative to control; type: functional
786-0 [13] = experiment: Effect on TFRC expression in human 786-0 cells in presence of 0.25 uM RSL3 at 1 uM incubated for 2.5 hrs by Western blot analysis; type: functional, cell-based
786-0 [14] = experiment: Metal chelating activity assessed as Fe2+ chelation in human 786-0 cells assessed as intracellular ferrous ion level at 1 uM by FerroOrange fluorescent probe based assay; type: cell-based
[15] = Inhibition of erastin induced ferroptosis in human 786-0 cells assessed as cell viability incubated for 24 hrs by CellTiter-LumiTM assay; type: functional, cell-based; conditions: 786-0, 24 h
786-0 [16] = experiment: Effect on FTH1 expression in human 786-0 cells at 1 uM incubated for 2.5 hrs by western blot analysis; type: functional, cell-based
[17] = Inhibition of RSL3 induced ferroptosis in H9c2 cells assessed as cell viability incubated for 24 hrs by CellTiter-LumiTM assay; type: functional, cell-based; conditions: Rattus norvegicus, H9c2, 24 h
786-0 [18] = experiment: Effect on FTL expression in human 786-0 cells in presence of 0.25 uM RSL3 at 1 uM incubated for 2.5 hrs by Western blot analysis; type: functional, cell-based
786-0 [19] = experiment: Effect on erastin-induced decrease in GSH level in human 786-0 cells at 1 uM incubated for 10 hrs by Total intracellular GSH assay; type: functional, cell-based
786-0 [20] = experiment: Effect on TFRC expression in human 786-0 cells at 1 uM incubated for 2.5 hrs by Western blot analysis; type: functional, cell-based
786-0 [21] = experiment: Effect on FTL expression in human 786-0 cells at 1 uM incubated for 2.5 hrs by western blot analysis; type: functional, cell-based
786-0 [22] = experiment: Effect on IRP1 expression in human 786-0 cells in presence of 0.25 uM RSL3 at 1 uM incubated for 2.5 hrs by Western blot analysis; type: functional, cell-based
SK-HEP1 [23] = experiment: Inhibition of RSL3 induced lipid-ROS accumulation in human SK-HEP1 cells at 1 uM incubated for 2.5 hrs by C11-BODIPY 581/591 staining coupled with flow cytometry analysis; type: functional, cell-based
786-0 [24] = experiment: Inhibition of RSL3 induced lipid-ROS accumulation in human 786-0 cells incubated for 2.5 hrs by C11-BODIPY 581/591 staining coupled with flow cytometry analysis; type: functional, cell-based; conditions: dose 0.1-1 µM
786-0 [25] = experiment: Effect on GPX4 expression in human 786-0 cells at 1 uM incubated for 2.5 hrs by Western blot analysis; type: functional, cell-based
786-0 [26] = experiment: Effect on ACSL4 expression in human 786-0 cells at 1 uM incubated for 2.5 hrs by Western blot analysis; type: functional, cell-based
786-0 [27] = experiment: Effect on SLC7A11 expression in human 786-0 cells at 1 uM incubated for 2.5 hrs by Western blot analysis; type: functional, cell-based
786-0 [28] = experiment: Effect on FTH1 expression in human 786-0 cells in presence of 0.25 uM RSL3 at 1 uM incubated for 2.5 hrs by Western blot analysis; type: functional, cell-based
786-0 [29] = experiment: Inhibition of H2O2 induced necrosis in human 786-0 cells assessed as cell viability at 1 uM incubated for 24 hrs by CellTiter-LumiTM assay; type: functional, cell-based
786-0 [30] = experiment: Effect on IRP1 expression in human 786-0 cells at 1 uM incubated for 2.5 hrs by western blot analysis; type: functional, cell-based
786-0 [31] = experiment: Inhibition of RSL3-induced ferroptosis in human 786-0 cells assessed as cell viability by assessing cell morphology incubated for 24 hrs by CellTiter-LumiTM plus luminescent cell viability assay; type: functional, cell-based; conditions: 786-0, 24 h
[32] = Inhibition of RSL3 induced ferroptosis in human MHCC97H cells assessed as cell viability incubated for 24 hrs by CellTiter-LumiTM assay; type: functional, cell-based

## COc1cccc(C2N(c3ccccc3)N=C(C(C)=O)N2c2ccc(N(C)C)cc2)c1OCc1ccc(C(C)(C)C)cc1 (stereo unspecified)
786-0 [1]
  EC50: 870 nM

## COc1cccc(C2N(c3ccccc3)N=C(C(C)=O)N2c2ccc(N(C)C)cc2)c1OCc1ccc(C#N)cc1 (stereo unspecified)
786-0 [2]
  Activity: Active
786-0 [1]
  EC50: 150 nM

## CC(=O)C1=NN(c2ccccc2)C(c2cccc(C)c2OCc2ccc(Cl)cc2Cl)N1c1ccc(N(C)C)cc1 (stereo unspecified)
786-0 [2]
  Activity: Active
786-0 [1]
  EC50: 1230 nM

## COc1cccc(COc2c(OC)cccc2C2N(c3ccccc3)N=C(C(C)=O)N2c2ccc(N(C)C)cc2)c1 (stereo unspecified)
786-0 [2]
  Activity: Active
786-0 [1]
  EC50: 150 nM

## COc1cccc(C2N(c3ccccc3)N=C(C(C)=O)N2c2ccc(N(C)C)cc2)c1OCc1cccc(Cl)c1 (stereo unspecified)
786-0 [2]
  Activity: Active
786-0 [1]
  EC50: 190 nM

## COc1cccc(C2N(c3ccccc3)N=C(C(C)=O)N2c2ccc(N(C)C)cc2)c1OCc1ccc(C)cc1 (stereo unspecified)
786-0 [2]
  Activity: Active
786-0 [1]
  EC50: 130 nM

## CC(=O)C1=NN(c2ccccc2)C(c2cc(C)c(OCc3ccc(Cl)cc3Cl)c(C)c2)N1c1ccc(N(C)C)cc1 (stereo unspecified)
786-0 [1]
  EC50: 150 nM

## CC(=O)C1=NN(c2ccccc2)C(c2cc(C)ccc2OCc2ccc(Cl)cc2Cl)N1c1ccc(N(C)C)cc1 (stereo unspecified)
786-0 [2]
  Activity: Active
786-0 [1]
  EC50: 680 nM

## COc1cccc(C2N(c3ccccc3)N=C(C(C)=O)N2c2ccc(N(C)C)cc2)c1OCc1ccc(C(F)(F)F)cc1 (stereo unspecified)
786-0 [2]
  Activity: Active
786-0 [1]
  EC50: 80 nM

## COc1cccc(C2N(c3ccccc3)N=C(C(C)=O)N2c2ccc(N(C)C)cc2)c1OCc1c(C)cc(C)cc1C (stereo unspecified)
786-0 [1]
  EC50: 360 nM

## CC(C)[N+](C)(CCOC(=O)C1c2ccccc2Oc2ccccc21)C(C)C [PROPANTHELINE]
[3]
  half-life at 1 µM: 27.9 min

## COc1cccc(C2N(c3ccccc3)N=C(C(C)=O)N2c2ccc(N(C)C)cc2)c1OCc1ccc(Cl)cc1 (stereo unspecified)
786-0 [2]
  Activity: Active
786-0 [1]
  EC50: 120 nM

## COc1cccc(C2N(c3ccccc3)N=C(C(C)=O)N2c2ccc(N(C)C)cc2)c1OCc1cccc(Br)c1 (stereo unspecified)
786-0 [2]
  Activity: Active
786-0 [1]
  EC50: 120 nM

## COc1cccc(C2N(c3ccccc3)N=C(C(C)=O)N2c2ccc(N(C)C)cc2)c1OCc1ccc(F)c(Cl)c1 (stereo unspecified)
786-0 [1]
  EC50: 330 nM

## COC(=O)c1ccc(COc2c(OC)cccc2C2N(c3ccccc3)N=C(C(C)=O)N2c2ccc(N(C)C)cc2)cc1 (stereo unspecified)
786-0 [2]
  Activity: Active
[4]
  EC50: 128 nM
786-0 [5]
  CC50: > 40000 nM
[6]
  Activity: Dose-dependent-effect
786-0 [7]
  inhibition: inactive
HT-1080
  Activity: Active
[8]
  EC50: 317 nM
786-0 [9]
  inhibition: Active
786-0 [10]
  inhibition: Active; Eliminated As Fast As Fer-1
SK-HEP1 [11]
  inhibition: Active
[12]
  Activity: Active
786-0 [13]
  Activity: inactive
786-0 [14]
  Activity: inactive
[15]
  EC50: 52 nM
786-0 [16]
  Activity: inactive
[17]
  EC50: 171 nM
786-0 [18]
  Activity: inactive
786-0 [19]
  Activity: inactive
786-0 [20]
  Activity: inactive
786-0 [21]
  Activity: inactive
786-0 [22]
  Activity: inactive
SK-HEP1 [23]
  inhibition: Active
786-0 [24]
  inhibition: Dose-dependent-effect
786-0 [25]
  Activity: inactive
786-0 [26]
  Activity: inactive
786-0 [1]
  EC50: 70 nM
786-0 [27]
  Activity: inactive
786-0 [28]
  Activity: inactive
786-0 [29]
  inhibition: inactive
786-0 [30]
  Activity: inactive
786-0 [31]
  EC50: 91 nM
[32]
  EC50: 635 nM

## COc1cc(COc2c(OC)cccc2C2N(c3ccccc3)N=C(C(C)=O)N2c2ccc(N(C)C)cc2)ccc1F (stereo unspecified)
786-0 [1]
  EC50: 170 nM
